The text below walks through data of patent US20190192524A1, “Modulators of Caspase-6” (The University of British Columbia, priority 2014, published 2019).

One assay has as its target T1, caspase-6 (Mus musculus, UniProt O08738).
T1 construct: endogenous in cells; host or cells: primary cortical neurons from FVB/N mice
T1 sequence (O08738 6-276): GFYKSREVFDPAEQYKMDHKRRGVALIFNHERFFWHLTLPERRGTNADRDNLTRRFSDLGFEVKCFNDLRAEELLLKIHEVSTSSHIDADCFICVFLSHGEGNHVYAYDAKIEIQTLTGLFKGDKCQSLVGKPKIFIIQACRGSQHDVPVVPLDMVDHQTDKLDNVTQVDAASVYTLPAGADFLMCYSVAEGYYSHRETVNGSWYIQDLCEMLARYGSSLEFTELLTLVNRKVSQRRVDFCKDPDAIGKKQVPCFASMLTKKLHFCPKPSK
Put plainly: Lamin A cleavage in primary cortical neuronal culture treated with camptothecin. The conditions noted are these: 10 uM compound; 10 uM camptothecin for 30 h. The class given is cell-based, FVB/N mice. The protocol:
Cortical neuronal cultures from FVB mice were prepared as described (Metzler et al, J Neurosci (2007) 27(9):2298). At day 10 in vitro, cells were treated with camptothecin, and after 30 h harvested by scraping in PBS supplemented with 1× complete protease inhibitor (Roche) and 4 mM Pefabloc. Cells were lysed by suspension in lysis buffer (50 mM Tris pH8, 150 mM NaCl, 1% Igepal, supplemented with 1× complete protease inhibitor (Roche) and 4 mM Pefabloc). Lysates were incubated on ice for 10 min, vortexed and sonicated for 4 sec before centrifugation at 21 000×g for 10 min at 4° C. Supernatants were saved, protein concentration determined with the Biorad DC assay and quantitative assessment of cleaved lamin A in neuronal lysates was performed with the Mesoscale ELISA method as described in Ehrnhoefer et al. PLoS One, 2011. 6(11):e27680.
Next, it was determined whether the PG-3d compound could inhibit caspase-6 within neuronal cells in an in vitro neuronal system which may be more relevant for the testing of therapeutics for neurodegeneration. Briefly, primary cortical neuronal cultures from FVB/N mice were treated with 10 uM camptothecin for 30 h starting at DIV10 in the presence or absence of 10 uM of the PG-3d compound.

The target of assay [1] is T2, interaction between 1212AA Htt and caspase-6 (Homo sapiens, UniProt P55212).
T2 construct: DDK-tag (C); expressed in transfected cells; host or cells: COS-7
T2 sequence (P55212 with tags, fused parts or gaps): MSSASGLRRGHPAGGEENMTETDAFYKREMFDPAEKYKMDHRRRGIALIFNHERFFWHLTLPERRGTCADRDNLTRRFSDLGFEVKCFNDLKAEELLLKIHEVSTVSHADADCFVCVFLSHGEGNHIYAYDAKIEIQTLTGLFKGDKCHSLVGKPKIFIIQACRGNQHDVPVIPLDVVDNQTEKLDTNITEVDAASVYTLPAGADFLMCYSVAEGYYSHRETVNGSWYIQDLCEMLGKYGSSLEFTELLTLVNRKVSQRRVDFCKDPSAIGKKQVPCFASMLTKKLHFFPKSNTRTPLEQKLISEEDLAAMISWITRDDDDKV
Briefly: Co-immunoprecipitation of Htt with caspase-6 antibody from COS-7 lysates. The class given is cell-based. The conditions noted are these: 10 uM compound, vs DMSO. As to the method: COS-7 cells were co-transfected with the 1212 amino acid HTT fragment (SEQ ID NO: 3) and the full length human caspase-6 enzyme (SEQ ID NO:4). The co-transfected cells were exposed to either 10 uM of the PG3d compound, 3 uM of the Q-VD-Oph pan-caspase inhibitor or were treated with DMSO as a control. An aliquot of the cell lysates were subjected to Western blotting to detect HTT fragments with the Htt antibody 2166 (Millipore) and the presence of caspase-6 was detected using the HD91 antibody (Ehrnhoefer et al, HMG, 2014. 23(3):717-29). The remaining cell lysates (500 ug protein) were immunoprecipitated with 5 ug of Caspase-6 antibody for 16 hrs at 4 C. The immunoprecipitated proteins were then applied to acrylamide gels and immunoblotted to detect either the HTT fragments or the presence of the active caspase 6 enzyme using the antibodies described above.
As expected, the DMSO control lysates reveal a variety of Htt fragments within the immunocomplexes, including 513AA fragment generated by caspase-3 cleavage, the full-length 1212AA Htt and the 586AA fragment generated by caspase-6 cleavage. When the cells are treated with the pan-caspase inhibitor Q-VD-OPh, the amount of Htt cleavage fragments interacting with caspase-6 is reduced and it is evident that caspase-6 is primarily interacting with the 1212 AA Htt.

In the case of `O=c1oc(C#Cc2ccccc2)nc(O)c1Cc1ccccc1` [PG-3d, 5-Benzyl-4-hydroxy-2-(phenylethynyl)-6H-1,3-oxazin-6-one], the “caspase-6 activity (cleaved lamin A)” value at caspase-6 was “significantly reduces”. For the same molecule, in assay [1], the “interaction between 1212AA Htt and caspase-6 (co-immunoprecipitated Htt)” value is listed as “significantly reduces”.
